Patent publication US20100210567A1, “USE OF A TUFTSIN AS A THERAPEUTIC AGENT” (priority 2007, published 2010)
Residues, ends and D or L forms follow the SMILES beside them.

Test system: drug-resistant Mycobacterium tuberculosis
Details: peptide 10 micrograms per ml, seven days

Structure (SMILES): C[C@@H](O)[C@H](N)C(=O)N[C@@H](CCCCN)C(=O)N1CCC[C@H]1C(=O)N[C@@H](CCCNC(=N)N)C(=O)O [Tuftsin, Thr-Lys-Pro-Arg-OH] (H-TKPR-OH)
- % inhibition: 0.0%
